Drawing on PubChem BioAssay (NCI), this text covers TGI and GI50 for 14 molecules.

“And” between values parts separate entries of the source, which are not always exact repeats. Identical values can stand only once.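 In this assay, cells in 96-well plates receive the compound at five concentrations for 48 hours. Endpoints are linearly interpolated between the surrounding concentrations. GI50: concentration for 50% inhibition of growth. At the TGI there is no net growth.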

Some test systems named below: HOP-62 NSCLC; OVCAR-3 ovarian; MOLT-4 leukemia; HCC-2998 colon; UACC-62 melanoma; SK-MEL-2 melanoma; MDA-MB-435; NCI-H23 lung; RPMI-8226 leukemia; SF-268 CNS.
Common to all, as to test: inhibition of tumour cell growth, NCI panel, 48 h

As to `Cc1[nH]c(=O)nc(NNCc2ccc(Cl)cc2)c1C(=O)Nc1ccc(Cl)cc1`, the TGI with HOP-62 NSCLC, with OVCAR-3 ovarian, with MOLT-4 leukemia, in the assay with HCC-2998 colon, with UACC-62 melanoma and in the assay on SK-MEL-2 melanoma was greater than 100 µM throughout. For the same molecule, the TGI in the assay with MDA-MB-435, in the assay with NCI-H23 lung and in the assay on RPMI-8226 leukemia was greater than 100 µM each time.
`CSc1nc2c(c(=O)[nH]1)N=C(c1ccccc1)CC(c1ccccc1)N2` (centres undefined): the TGI with HOP-62 NSCLC is greater than 100 µM; in the assay with OVCAR-3 ovarian, greater than 100 µM; in the assay with MOLT-4 leukemia it was 59.6 µM; in the assay with HCC-2998 colon it was greater than 100 µM; in the assay on UACC-62 melanoma, 57.1 µM; in the assay with SK-MEL-2 melanoma, 76.7 µM. Moreover, the TGI in the assay with MDA-MB-435 was greater than 100 µM; in the assay with NCI-H23 lung it was 98.2 µM; in the assay on RPMI-8226 leukemia, 71 µM.
As for `COc1ccc2nc3cccc([N+](=O)[O-])c3c(NCCCO)c2c1`, the GI50 was 0.00282 µM in the assay on HOP-62 NSCLC; 0.00328 µM and 0.0181 µM in the assay with MOLT-4 leukemia; 0.00186 µM with HCC-2998 colon; 0.00294 µM in the assay with UACC-62 melanoma; 0.00101 µM in the assay on SF-268 CNS; 0.00162 µM with SK-MEL-2 melanoma. The GI50 in the assay with NCI-H23 lung is 0.0117 µM. Besides, the TGI with HOP-62 NSCLC was 0.0157 µM and 0.0193 µM; in the assay with MOLT-4 leukemia it was 0.036 µM and 0.0847 µM; in the assay on UACC-62 melanoma, 0.0151 µM and 0.0185 µM; in the assay with SK-MEL-2 melanoma, 0.00376 µM; with MDA-MB-435, 0.0017 µM and 0.0128 µM; with NCI-H23 lung it was 0.05 µM. In the assay with RPMI-8226 leukemia, the TGI was 0.219 µM.
For `Cc1ccc(C(=O)N/N=C(\N=Nc2ccc(C(=O)O)cc2)c2ccc(N(CCC#N)CCC#N)cc2C)cc1`, the TGI in the assay on HOP-62 NSCLC, with OVCAR-3 ovarian, in the assay with MOLT-4 leukemia, in the assay with HCC-2998 colon, in the assay with SK-MEL-2 melanoma and in the assay with MDA-MB-435 was greater than 100 µM throughout. The TGI with NCI-H23 lung and in the assay on RPMI-8226 leukemia was greater than 100 µM each time.
Turning to `CC(=O)OC(C)(C)CCC(=O)[C@](C)(O)[C@H]1[C@H](O)C[C@@]2(C)[C@@H]3CCc4c(cc(OC5OC(CO)C(O)C(O)C5O)c(O)c4C)C3(C)C(=O)C[C@]12C` (some centres undefined), the TGI in the assay with HOP-62 NSCLC, with OVCAR-3 ovarian, in the assay with MOLT-4 leukemia, in the assay on HCC-2998 colon, with UACC-62 melanoma and in the assay with SF-268 CNS was greater than 100 µM throughout. Further, the TGI in the assay on SK-MEL-2 melanoma, with MDA-MB-435 and in the assay on NCI-H23 lung was greater than 100 µM throughout.
`CCOC(=O)/C=C(/C)Nc1nc2c(c(C(=O)OC)c1C#N)CCCC2`: the TGI in the assay with HOP-62 NSCLC, with MOLT-4 leukemia, with HCC-2998 colon, with UACC-62 melanoma, in the assay on SF-268 CNS and in the assay with SK-MEL-2 melanoma was greater than 100 µM each time. The TGI with MDA-MB-435, in the assay with NCI-H23 lung and in the assay with RPMI-8226 leukemia was greater than 100 µM throughout.
Turning to `N#Cc1c(O)c(/C=N/c2ncccn2)c(=O)n2c1[nH]c1ccccc12`, the TGI in the assay with OVCAR-3 ovarian, in the assay with MOLT-4 leukemia, with HCC-2998 colon, in the assay with SF-268 CNS, in the assay with SK-MEL-2 melanoma and in the assay with MDA-MB-435 was greater than 100 µM each time. Besides, the TGI with NCI-H23 lung and with RPMI-8226 leukemia was greater than 100 µM in each case.
`CCOC(=O)c1nc2ccc(C(F)(F)F)cc2nc1Oc1ccc(C(=O)OC)cc1`: the TGI with HOP-62 NSCLC was 74.8 µM; in the assay on MOLT-4 leukemia, greater than 100 µM; in the assay with HCC-2998 colon, greater than 100 µM; in the assay with UACC-62 melanoma, greater than 100 µM; in the assay on SF-268 CNS, greater than 100 µM; in the assay with SK-MEL-2 melanoma, greater than 100 µM. Besides, the TGI with MDA-MB-435, in the assay with NCI-H23 lung and in the assay with RPMI-8226 leukemia was greater than 100 µM each time.
Turning to `CCOC(=O)c1cccc(NC(=O)CI)c1`, the TGI with HOP-62 NSCLC is 2.44 µM; in the assay on OVCAR-3 ovarian it was 0.759 µM; in the assay with MOLT-4 leukemia it was 0.221 µM; in the assay with HCC-2998 colon, 4.34 µM; in the assay on UACC-62 melanoma it was 1.87 µM; in the assay with SK-MEL-2 melanoma, 2.4 µM. Also, the TGI with MDA-MB-435 turned out to be 0.797 µM; with NCI-H23 lung it was 0.521 µM; in the assay on RPMI-8226 leukemia, 3.28 µM.
As to `O=C(c1cc2c(c3ccccc13)NC1(CCCCC1)N=C2C(F)(F)F)C(F)(F)F`, the TGI in the assay on HOP-62 NSCLC was greater than 100 µM; in the assay on OVCAR-3 ovarian, 7.81 µM; in the assay on MOLT-4 leukemia it was 14.5 µM; in the assay with HCC-2998 colon, 10.4 µM; in the assay with UACC-62 melanoma, 13.6 µM; in the assay with SF-268 CNS it was 20 µM. The TGI in the assay with SK-MEL-2 melanoma worked out at 5.87 µM; with MDA-MB-435 it was 12.5 µM; in the assay on NCI-H23 lung, 12.5 µM.
For `CCOC(=O)C(Cl)(NC(=O)OCc1ccccc1)C(F)(F)F` (centres undefined), the TGI with HOP-62 NSCLC, in the assay on OVCAR-3 ovarian, in the assay with MOLT-4 leukemia, in the assay on HCC-2998 colon, in the assay with SF-268 CNS and in the assay with SK-MEL-2 melanoma was greater than 100 µM throughout. The TGI with MDA-MB-435, in the assay on NCI-H23 lung and in the assay on RPMI-8226 leukemia was greater than 100 µM each time.
Turning to `CCOC(=O)NN(C(=O)OCC)c1c(C)cc(C)cc1C`, the TGI in the assay on OVCAR-3 ovarian, with MOLT-4 leukemia, in the assay on HCC-2998 colon, in the assay with UACC-62 melanoma, in the assay on SF-268 CNS and with SK-MEL-2 melanoma was greater than 100 µM in each case. For the same molecule, the TGI with MDA-MB-435, in the assay on NCI-H23 lung and with RPMI-8226 leukemia was greater than 100 µM throughout.
In the case of `COc1ccc(NC(=S)c2ccoc2C)cc1CC(=O)OC(C)C`, the TGI is greater than 100 µM in the assay on OVCAR-3 ovarian; 80.4 µM in the assay with MOLT-4 leukemia; greater than 100 µM with HCC-2998 colon; greater than 100 µM in the assay on UACC-62 melanoma; greater than 100 µM in the assay on SF-268 CNS; 40.6 µM with SK-MEL-2 melanoma. The TGI with MDA-MB-435, in the assay with NCI-H23 lung and in the assay with RPMI-8226 leukemia was greater than 100 µM throughout.
Take `C#CC1(O)CCCCCCCCC2(CCCCCCCC1)OCCO2`: the TGI was 44.5 µM in the assay on HOP-62 NSCLC; 29.3 µM in the assay with OVCAR-3 ovarian; 29.5 µM with HCC-2998 colon; 28.6 µM in the assay on UACC-62 melanoma; 34.2 µM with SF-268 CNS; 27.9 µM in the assay with SK-MEL-2 melanoma. In addition, the results for the TGI with MDA-MB-435, in the assay with NCI-H23 lung and in the assay on RPMI-8226 leukemia were 33.5 µM, 33.9 µM and 22 µM, respectively.
